Assay results taken from US6852863B2, “Metabolites of (3-{[4-tert-butyl-benzyl)-(pyridine-3-sulfonyl)-amino]-methyl}-phenoxy)-acetic acid” (Pfizer Inc., priority 2002, dated 2005).

Columns and labels:
[1] = Metabolism of 14C-parent in rat liver microsomes; format: in vitro ADME; settings: 20 μM 14C-parent, NADPH, 30 minutes, 37° C.; HPLC radiochromatogram peak
Description: Human (HL-mix 12), rat, monkey and dog liver microsomes were prepared by differential centrifugation using standard procedures. Prior to use, liver microsomes were thawed on ice and reconstituted using 100 mM potassium phosphate pH 7.4. [^14C]-(3-{[4-tert-butyl-benzyl)-(pyridine-3-sulfonyl)-amino]-methyl}-phenoxy)-acetic acid was dissolved 100 mM potassium phosphate pH 7.4 at a final substrate concentration of 20 μM. Samples were pre-incubated for 3 min with microsomes (CYP 450; 0.5 μM) at 37° C. in a shaking water bath. Incubations were initiated with the addition of 100 μl cofactor (1.1 mM NADPH, 10 mM MgCl2) per 1 ml of incubation mixture. Incubations were stopped after 30 minutes by the addition of an equal volume of cold acetonitrile.
Metabolite quantification was performed by measuring the areas of individually separated HPLC peaks using the β-RAM (IN/US, Win-flow). […]
Identification of the metabolites was performed using a Finnigan TSQ 7000 triple quadrupole mass spectrometer equipped with an API-2 electrospray interface. […] The β-RAM response was recorded as a real time analog signal by the MS data collection system. The collected data from the radioactivity and MS detectors were separated by the dwell volume of flow from the MS to the radioactivity detector (corresponding to a dwell time of about 0.2 min.). […]

[2] = Radiolabelled mass balance and metabolic profiles of 14C-parent in Sprague Dawley rats; format: in vivo; settings: single 15 mg/kg I.V. dose of 14C-parent
Description: To determine the radiolabelled mass balance and metabolic profiles of (3-{[4-tert-butyl-benzyl)-(pyridine-3-sulfonyl)-amino]-methyl}-phenoxy)-acetic acid in urine, feces, bile and plasma of Sprague-Dawley rats after I.V. administration of a single 15 mg/kg dose of ^14C-(3-{[4-tert-butyl-benzyl)-(pyridine-3-sulfonyl)-amino]-methyl}-phenoxy)-acetic acid.
A group of three male and three female jugular-vein cannulated Sprague-Dawley rats (230-240 g) was housed individually in stainless steel metabolic cages designed to collect urine and feces and administered intravenously a single, 15 mg/kg, dose of ^14C-(3-{[4-tert-butyl-benzyl)-(pyridine-3-sulfonyl)-amino]-methyl}-phenoxy)-acetic acid. […]
The radioactivity in urine, bile and plasma was determined by liquid scintillation counting. Aliquots of urine (0.1 g), bile (0.025 g) or plasma (0.025 g) were mixed with 5 ml of Ecolite (+) scintillation cocktail and counted in a Wallac #1409 liquid scintillation counter (Gaithersburg, Md.). Fecal samples at each time point were homogenized with water, and the total weights of the fecal homogenate were recorded. […]
The radioactivity in the dose was established as 100% of the total radioactivity. The radioactivity at each sampling time for urine and feces was defined as the percentage of dose excreted in the respective matrices. […]

Percent of Radioactivity, Rat liver microsomes [1]: 4.38% | Percentage of metabolite formed in vivo, females (basis of % not stated) ([2]; female rats): 6.5% | Percentage of metabolite formed in vivo, males (basis of % not stated) ([2]; male rats): 19.7%
SMILES: CC(C)(CO)c1ccc(CN(Cc2cccc(OCC(=O)O)c2)S(=O)(=O)c2cccnc2)cc1 [Metabolite M4, (3-{[[4-(2-hydroxy-1,1-dimethyl-ethyl)-benzyl]-(pyridine-3-sulfonyl)-amino]-methyl}-phenoxy)-acetic acid]
